Source: patent US10000512B2, “Compounds for the treatment of infectious diseases” (Hoffmann-La Roche Inc., priority 2014, dated 2018)

Molecular target: T1, human TLR7 (Homo sapiens, UniProt Q9NYK1)
T1 sequence (Q9NYK1 27-1049): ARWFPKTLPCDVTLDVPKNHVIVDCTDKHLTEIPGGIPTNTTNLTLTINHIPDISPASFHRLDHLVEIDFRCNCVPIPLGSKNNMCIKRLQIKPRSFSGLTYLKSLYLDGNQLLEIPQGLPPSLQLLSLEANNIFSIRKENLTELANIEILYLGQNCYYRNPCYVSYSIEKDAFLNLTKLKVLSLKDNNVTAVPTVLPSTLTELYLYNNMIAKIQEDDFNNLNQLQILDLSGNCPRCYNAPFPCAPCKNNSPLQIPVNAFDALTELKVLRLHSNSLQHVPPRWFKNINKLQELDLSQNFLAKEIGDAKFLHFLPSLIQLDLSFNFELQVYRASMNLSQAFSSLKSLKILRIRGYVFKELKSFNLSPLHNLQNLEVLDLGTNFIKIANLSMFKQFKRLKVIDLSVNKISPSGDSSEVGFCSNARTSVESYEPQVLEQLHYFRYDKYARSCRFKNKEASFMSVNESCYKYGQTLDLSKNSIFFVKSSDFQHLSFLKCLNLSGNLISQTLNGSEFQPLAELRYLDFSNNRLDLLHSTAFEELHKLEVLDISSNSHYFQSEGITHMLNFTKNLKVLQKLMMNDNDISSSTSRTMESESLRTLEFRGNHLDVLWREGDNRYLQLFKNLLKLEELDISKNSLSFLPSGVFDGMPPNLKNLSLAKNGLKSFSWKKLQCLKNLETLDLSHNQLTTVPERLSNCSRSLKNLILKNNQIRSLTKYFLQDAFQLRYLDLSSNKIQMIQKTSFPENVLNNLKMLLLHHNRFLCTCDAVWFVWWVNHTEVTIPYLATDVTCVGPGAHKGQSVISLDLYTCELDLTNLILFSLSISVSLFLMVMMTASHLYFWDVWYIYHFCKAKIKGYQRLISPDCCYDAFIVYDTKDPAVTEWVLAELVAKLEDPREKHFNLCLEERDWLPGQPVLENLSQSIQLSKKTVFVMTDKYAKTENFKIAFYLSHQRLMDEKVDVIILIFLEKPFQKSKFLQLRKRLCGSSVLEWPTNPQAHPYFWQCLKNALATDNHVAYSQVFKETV
Assay: HEK293-Blue-hTLR-7 cells assay (SEAP reporter)
Format: cell-based
Conditions: 20 hours incubation
From the text: A stable HEK293-Blue-hTLR-7 cell line was purchased from InvivoGen (Cat.#: hkb-ht1r7, San Diego, Calif., USA). These cells were designed for studying the stimulation of human TLR7 by monitoring the activation of NF-κB. A SEAP (secreted embryonic alkaline phosphatase) reporter gene was placed under the control of the IFN-β minimal promoter fused to five NF-κB and AP-1-binding sites. The SEAP was induced by activating NF-κB and AP-1 via stimulating HEK-Blue hTLR7 cells with TLR7 ligands. Therefore the reporter expression was regulated by the NF-κB promoter upon stimulation of human TLR7 for 20 hours. The cell culture supernatant SEAP reporter activity was determined using QUANTI-Blue™ kit (Cat.#: rep-qb1, Invivogen, San Diego, Calif., USA) at a wavelength of 640 nm, a detection medium that turns purple/blue in the presence of alkaline phosphatase.
HEK293-Blue-hTLR7 cells were incubated at a density of 250,000˜450,000 cells/mL in a volume of 180 μL in a 96-well plate in Dulbecco's Modified Eagle's medium (DMEM) containing 4.5 g/L glucose, 50 U/mL penicillin, […] streptomycin, […] Normocin, 2 mM L-glutamine, 10% (v/v) heat-inactivated fetal bovine serum for 24 h. Then the HEK293-Blue-hTLR-7 cells were incubated with addition of 20 μL test compound in a serial dilution in the presence of final DMSO at 1% and perform incubation under 37° C. in a CO2 incubator for 20 hours. Then 20 μL of the supernatant from each well was incubated with 180 μL Quanti-blue substrate solution at 37° C. for 2 h and the absorbance was read at 620˜655 nm using a spectrophotometer. The signalling pathway that TLR7 activation leads to downstream NF-κB activation has been widely accepted, and therefore similar reporter assay was also widely used for evaluating TLR7 agonist (Tsuneyasu Kaisho and Takashi Tanaka, Trends in Immunology, Volume 29, Issue 7, July 2008, […]; Hiroaki Hemmi et al, Nature Immunology 3, 196-200 (2002).

EC50 [µM]	SMILES
306	Nc1nc2c(sc(=O)n2[C@H]2CS[C@@H](C(O)C3CC3)O2)c(=O)[nH]1 (single isomer, unassigned) [Example 4-B]
61.7	CC(=O)OC(C1CC1)[C@H]1O[C@@H](n2c(=O)sc3c(=O)[nH]c(N)nc32)CS1 (single isomer, unassigned) [Example 7-A]
16.5	CCC(O)[C@H]1O[C@@H](n2c(=O)sc3c(=O)[nH]c(N)nc32)CS1 (single isomer, unassigned) [Example 8-A]
10	CCCC(O)[C@H]1O[C@@H](n2c(=O)sc3c(=O)[nH]c(N)nc32)CS1 (single isomer, unassigned) [Example 9-A]
160	CCCC(O)[C@H]1O[C@@H](n2c(=O)sc3c(=O)[nH]c(N)nc32)CS1 (single isomer, unassigned) [Example 9-B]
7.6	CC#CC(O)[C@H]1O[C@@H](n2c(=O)sc3c(=O)[nH]c(N)nc32)CS1 (single isomer, unassigned) [Example 10-A]
122	CC#CC(O)[C@H]1O[C@@H](n2c(=O)sc3c(=O)[nH]c(N)nc32)CS1 (single isomer, unassigned) [Example 10-B]
151	CC#CC(OC(C)=O)[C@H]1O[C@@H](n2c(=O)sc3c(=O)[nH]c(N)nc32)CS1 (single isomer, unassigned) [Example 13-A]
54.3	Nc1nc2c(sc(=O)n2[C@H]2CS[C@@H](C(O)C#CC3CC3)O2)c(=O)[nH]1 (single isomer, unassigned) [Example 14-A]
16.7	C#CC(O)[C@H]1O[C@@H](n2c(=O)sc3c(=O)[nH]c(N)nc32)CS1 (single isomer, unassigned) [Example 15-A]
46.5	CC(O)[C@H]1O[C@@H](n2c(=O)sc3c(=O)[nH]c(N)nc32)CS1 (single isomer, unassigned) [Example 16-A]
63.3	CC(C)CC(O)[C@H]1O[C@@H](n2c(=O)sc3c(=O)[nH]c(N)nc32)CS1 (single isomer, unassigned) [Example 17-A]
93.6	CC(C)CC(O)[C@H]1O[C@@H](n2c(=O)sc3c(=O)[nH]c(N)nc32)CS1 (single isomer, unassigned) [Example 17-B]
29	C=CCC(O)[C@H]1O[C@@H](n2c(=O)sc3c(=O)[nH]c(N)nc32)CS1 (single isomer, unassigned) [Example 18-A]
32.9	CCCCC(O)[C@H]1O[C@@H](n2c(=O)sc3c(=O)[nH]c(N)nc32)CS1 (single isomer, unassigned) [Example 19-A]
33.9	Nc1nc2c(sc(=O)n2[C@H]2CS[C@@H](C(O)c3cccs3)O2)c(=O)[nH]1 (single isomer, unassigned) [Example 20-A]
53.9	C[C@@H]1S[C@@H](CO)OC1n1c(=O)sc2c(=O)[nH]c(N)nc21 (single isomer, unassigned) [Example 21-A]
4.7	CC[C@H](O)C1OC(n2c(=O)sc3c(=O)[nH]c(N)nc32)[C@H](C)S1 (single isomer, unassigned) [Example 22-A]
4.5	C[C@@H]1S[C@@H](C(O)C2CC2)OC1n1c(=O)sc2c(=O)[nH]c(N)nc21 (single isomer, unassigned) [Example 23-A]
31.5	C[C@@H]1S[C@@H](C(O)C2CC2)OC1n1c(=O)sc2c(=O)[nH]c(N)nc21 (single isomer, unassigned) [Example 23-B]
10.1	CC#CC(O)C1OC(n2c(=O)sc3c(=O)[nH]c(N)nc32)[C@H](C)S1 (single isomer, unassigned) [Example 24-A]
178	C=CCC1SC(CO)OC1n1c(=O)sc2c(=O)[nH]c(N)nc21 (single isomer, unassigned) [Example 25-A, 3-[4-Allyl-2-(hydroxymethyl)-1,3-oxathiolan-5-yl]-5-amino-6H-thiazolo[4,5-d]pyrimidine-2,7-dione]
97	Nc1nc2c(sc(=O)n2C2CSC(CO)O2)c(=O)[nH]1 (stereo not shown) [Example 1, 5-Amino-3-[2-(hydroxymethyl)-1,3-oxathiolan-5-yl]-6H-thiazolo[4,5-d] pyrimidine-2,7-dione]
125	Nc1nc2c(sc(=O)n2[C@H]2CS[C@@H](CO)O2)c(=O)[nH]1 [Example 2-A, 5-amino-3-[(2S,5R)-2-(hydroxymethyl)-1,3-oxathiolan-5-yl]-6H-thiazolo[4,5-d]pyrimidine-2,7-dione]

System: AAV-HBV
Assay: In vivo antiviral efficacy in AAV-HBV mouse model
Parameters: species or system C57BL/6 mice
Conditions: 30 mg/kg PO QOD, after the 6-week treatment, mouse serum
Description: Example 6-A was evaluated for its in vivo antiviral efficacy using an AAV-HBV mouse model. This mouse model for HBV infection was generated by injecting C57BL/6 mice with a recombinant adeno-associated virus (AAV) carrying a replicable HBV (hepatitis B virus) genome (AAV-HBV). In 3 weeks post infection, high levels of HBV viral markers, such as HBV genomic DNA and HBsAg (HBV surface antigen), was detected in the sera of infected mice. With persistent HBV viremia and fully competent immune system, the AAV-HBV model is suitable for investigating the in vivo efficacy of Example 6-A.
To establish the AAV-HBV model, a total of fifteen 4-week old male C57BL/6 mice, specific pathogen free, were purchased from Shanghai Laboratory Animal Center of Chinese Academy of Sciences (SLAC) and housed in an animal care facility in individually ventilated cages under controlled temperature and light conditions following the Institutional Animal Care guidelines. AAV-HBV virus stock was available from Beijing FivePlus Molecular Medicine Institute (Beijing, China). C57BL/6 mice were injected with 200 μL of recombinant virus in saline buffer through tail vein injection. The mice were bled on day 14 post injection to monitor HBsAg, HBeAg, and HBV genomic DNA in serum. On day 29 post injection, the fifteen mice were randomly recruited into 3 groups based on their HBV biomarker levels, and started to receive treatments, as shown in Table 3.
Mice in group 1 were treated with vehicle placebo (2% Klucel LF, 0.1% Polysorbate 80, and 0.1% Parabens in water); mice in group 2 and 3 were treated with Example 6-A at 30 mg/kg and 100 mg/kg respectively, every other day (QOD). All the mice were orally dosed for a total of 6 weeks. Serum samples were collected twice a week to monitor HBV biomarkers. Serum HBsAg was measured using CLIA kits (Autobio Diagnostics Co., Ltd, Zhengzhou, China) according to the manufacturer's instructions. The lower limit of detection for HBsAg was 0.1 ng/mL. Serum dilution of 500-fold (for HBsAg) was used to obtain values within the linear range of the standard curve. Serum HBV DNA was extracted using a MagNA Pure 96 DNA and Viral NA Small Volume Kit (Roche) following the manufacturer's instructions. The DNA samples were analyzed by real-time quantitative PCR (qPCR) using a HBV-specific primer and probe set for specific amplification and detection of a 128 bp HBV genome region from the nucleotide 2969 to 3096.

SMILES	reduction in HBV DNA	reduction in HBsAg [log]
CC(=O)OC(C1CC1)[C@H]1O[C@@H](n2c(=O)sc3cnc(N)nc32)CS1 (single isomer, unassigned) [Example 6-A]	more than 2 log	0.8

Same assay, conditions: 100 mg/kg PO QOD, at the end of the treatment (6 weeks), mouse serum

SMILES	reduction in HBV DNA	reduction in HBsAg [log]
CC(=O)OC(C1CC1)[C@H]1O[C@@H](n2c(=O)sc3cnc(N)nc32)CS1 (single isomer, unassigned) [Example 6-A]	more than 3 log	2.4
